Patent US10155021B2, “Antimicrobial 4-oxoquinolizines” (Emergent Product Development Gaithersburg Inc., priority 2011, dated 2018)
Converted amounts (≈) assume the structure as drawn. Where two headings read alike, the source gives them in different places.

How the values were obtained:
[1] = tested on: A. baumannii J2; test: Preliminary MBC without and with sub-inhibitory polymyxin B (Example 4); assay type: cell-based, Acinetobacter baumannii; conditions: A. baumannii J2; +[…] polymyxin B; 2nd experiment; preliminary MBC
[2] = tested on: P. aeruginosa 27853; test: MIC, standard panel of Gram-positive and Gram-negative bacteria (CLSI); assay type: cell-based, Pseudomonas aeruginosa; conditions: Pseudomonas aeruginosa, 27853; CAMHB; read-out: MIC P. aeruginosa 27853
[3] = tested on: B. thailandensis; test: microbe, parasite or virus in culture; assay type: cell-based, Burkholderia thailandensis
[4] = tested on: Klebsiella ssp KPC-3; test: MIC, panel of quinolone-resistant strains (CLSI); assay type: cell-based, Klebsiella spp; conditions: KPC3, CIP R, ESBL
[5] = tested on: S. aureus 101; test: MIC, standard panel of Gram-positive and Gram-negative bacteria (CLSI); assay type: cell-based, Staphylococcus aureus; conditions: Staphylococcus aureus, 101; CAMHB; read-out: MIC S. aureus 101
[6] = tested on: A. baumannii J2; test: MIC without and with sub-inhibitory polymyxin B (Example 4); assay type: cell-based, Acinetobacter baumannii; conditions: A. baumannii J2; +[…] polymyxin B; 2nd experiment; visual reading
[7] = tested on: E. faecium 19434; test: MIC, standard panel of Gram-positive and Gram-negative bacteria (CLSI); assay type: cell-based, Enterococcus faecium; conditions: Enterococcus faecium, 19434; CAMHB; read-out: MIC E. faecium 19434
[8] = tested on: Pseudomonas ssp PER-1; test: MIC, panel of quinolone-resistant strains (CLSI); assay type: cell-based, Pseudomonas spp; conditions: PER1, CIP R, ESBL
[9] = tested on: B. anthracis; test: microbe, parasite or virus in culture; assay type: cell-based; conditions: Bacillus anthracis, read-out: MIC B. anthracis
[10] = tested on: F. tularensis; test: microbe, parasite or virus in culture; assay type: cell-based; conditions: Francisella tularensis, read-out: MIC F. tularensis
[11] = tested on: Acinetobacter sp. (H064200250); test: Preliminary MBC without and with sub-inhibitory polymyxin B (Example 4); assay type: cell-based; conditions: Acinetobacter, without polymyxin B, preliminary MBC, read-out: MBC without PB
Procedure: The plates were incubated for 18-20 hours at 37° C. The MBC was read as the lowest concentration at which colony growth was ca. 90% less than the positive control (i.e. usually where single colonies or no colonies were observed).

[12] = tested on: E. coli 25922; test: MIC, standard panel of Gram-positive and Gram-negative bacteria (CLSI); assay type: cell-based, Escherichia coli; conditions: Escherichia coli, 25922; CAMHB; read-out: MIC E. coli 25922
[13] = tested on: Acinetobacter spp. H064200250; test: MIC determination for Acinetobacter strains (Example 3); assay type: cell-based, Acinetobacter sp.; conditions: LEV R, CIP R, MRP R, IMP I
[14] = tested on: Acinetobacter sp. (H064200250); test: MIC without and with sub-inhibitory polymyxin B (Example 4); assay type: cell-based; conditions: Acinetobacter, without polymyxin B, read-out: MIC without PB
[15] = tested on: P. aeruginosa 143-3-03; test: MIC, panel of quinolone-resistant strains (CLSI); assay type: cell-based; conditions: Pseudomonas aeruginosa, 143303; CIP I, POL R
[16] = tested on: B. pseudomallei; test: microbe, parasite or virus in culture; assay type: cell-based; conditions: Burkholderia pseudomallei, read-out: MIC B. pseudomallei
[17] = tested on: resistant strains of A. baumannii and one strain of Acinetobacter sp.; test: MIC without and with sub-inhibitory polymyxin B, whole panel / MIC ranges (Example 4; also strains not listed separately); assay type: cell-based; conditions: Acinetobacter baumannii, 1st experiment
[18] = tested on: S. pneumoniae 1027; test: MIC, panel of quinolone-resistant strains (CLSI); assay type: cell-based; conditions: Streptococcus pneumoniae, LEV R
[19] = tested on: E. coli 2906; test: MIC, panel of quinolone-resistant strains (CLSI); assay type: cell-based; conditions: Escherichia coli, CIP R
[20] = tested on: B. abortus; test: microbe, parasite or virus in culture; assay type: cell-based; conditions: Brucella abortus, read-out: MIC B. abortus
[21] = tested on: E. coli CTX-M-15; test: MIC, panel of quinolone-resistant strains (CLSI); assay type: cell-based; conditions: Escherichia coli, CTXM15; CIP R, ESBL
[22] = tested on: P. aeruginosa 1388-3-02; test: MIC, panel of quinolone-resistant strains (CLSI); assay type: cell-based; conditions: Pseudomonas aeruginosa, 1388302; CIP R, POL R
[23] = Acinetobacter spp. H064200250, 1st experiment

## Cc1c(-c2ccc(CN)cc2)c(F)cn2c(=O)c(C(=O)O)cc(C3CC3)c12 [Compound 6, 8-(4-aminomethyl-phenyl)-1-cyclopropyl-7-fluoro-9-methyl-4-oxo-quinolizine-3-carboxylic acid]
[1]
  MBC +[…] PB: 0.25 µg/mL (≈ 0.682 µM)
[2]
  MIC: 2 µg/mL (≈ 5.46 µM)
[3]; Burkholderia thailandensis, read-out: MIC90 B. thailandensis
  MIC90: 0.39 µg/mL (≈ 1.06 µM)
[3]; pH 7 versus pH 5
  Dilutions improvement shift on B. thailandensis MIC90 (between pH 7 and pH 5): No
[4]
  MIC: 16 µg/mL (≈ 43.7 µM)
[5]
  MIC: 2 µg/mL (≈ 5.46 µM)
[6]
  MIC +[…] PB: 0.25 µg/mL (≈ 0.682 µM)
[7]
  MIC: 4 µg/mL (≈ 10.9 µM)
[8]
  MIC: 16 µg/mL (≈ 43.7 µM)
[9]
  MIC: 0.125 µg/mL (≈ 0.341 µM)
[10]
  MIC: 0.125 µg/mL (≈ 0.341 µM)
[11]; Acinetobacter spp. H064200250 (OXA51), 2nd experiment
  MBC: > 32 µg/mL
[11]; [23]
  MBC: 8 µg/mL (≈ 21.8 µM)
[12]
  MIC: < 0.03 µg/mL
[13]
  MIC: 8 µg/mL (≈ 21.8 µM)
[14]; Acinetobacter spp. H064200250 (OXA51), 2nd experiment, visual reading
  MIC: 16 µg/mL (≈ 43.7 µM)
[14]; [23]
  MIC: 8 µg/mL (≈ 21.8 µM)
[15]
  MIC: 8 µg/mL (≈ 21.8 µM)
[16]
  MIC: 2 µg/mL (≈ 5.46 µM)
[17]; A. baumannii A14, without polymyxin B, read-out: MIC without PB
  MIC: 32 µg/mL (≈ 87.3 µM)
[17]; NCTC13301, A. baumannii NCTC 13301, without polymyxin B, read-out: MIC without PB
  MIC: 32 µg/mL (≈ 87.3 µM)
[17]; read-out: MIC range without PB 01-10-2008 n = 8, without polymyxin B, 8 strains
  MIC: 4 to 32 µg/mL (≈ 10.9 to 87.3 µM)
[18]
  MIC: 2 µg/mL (≈ 5.46 µM)
[19]
  MIC: 16 µg/mL (≈ 43.7 µM)
[20]
  MIC: 0.5 µg/mL (≈ 1.36 µM)
[21]
  MIC: 16 µg/mL (≈ 43.7 µM)
[22]
  MIC: 32 µg/mL (≈ 87.3 µM)
